Patent publication US20140179726A1, “GUT MICROFLORA AS BIOMARKERS FOR THE PROGNOSIS OF CIRRHOSIS AND BRAIN DYSFUNCTION” (priority 2011, published 2014)

Columns and labels:
mucosal microbiome = test: Colonic mucosal microbiome by MTPS, compared using Metastats (Example 2); type: in vivo, human; conditions: colonic mucosa, HE patients
Method: Interrogation of the Microbiome: Stool was collected and DNA extracted for microbiome analysis using published techniques (30). A subset underwent an un-sedated, unprepared flexible sigmoidoscopy during which a pinch biopsy of the recto-sigmoid mucosa was obtained, which was snap-frozen and stored at −80° C. till the analysis. We first use Length Heterogeneity PCR (LH-PCR) fingerprinting of the 16S rRNA to rapidly survey samples and standardize the community amplification. We then interrogated the microbial taxa associated with the gut fecal microbiome using Multitag Pyrosequencing (MTPS) (16). This technique allows for rapid sequencing of multiple samples at one time yielding thousands of sequence reads per sample.
Microbiome Community Fingerprinting: LH-PCR was done to standardize the community analysis as previously published. Briefly, total genomic DNA was extracted from tissue using Bio101 kit from MP Biomedicals Inc., Montreal, Quebec as per the manufacturer's instructions. About 10 ng of extracted DNA was amplified by PCR using a fluorescently labeled forward primer 27F (5′-(6FAM) AGAGTTTGATCCTGGCTCA G-3′, SEQ ID NO: 1) and unlabeled reverse primer 355R′ (5′-GCTGCCTCCCGTAGGAGT-3′, SEQ ID NO: 2). Both primers are universal primers for Bacteria (23). The LH-PCR products were diluted according to their intensity on agarose gel electrophoresis and mixed with ILS-600 size standards (Promega) and HiDi Formamide (Applied Biosystems, Foster City, Calif.). The diluted samples were then separated on a ABI 3130x1 fluorescent capillary sequencer (Applied Biosystems, Foster City, Calif.) and processed using the Genemapper™ software package (Applied Biosystems, Foster City, Calif.). Normalized peak areas were calculated using a custom PERL script and operational taxonomic units (OTUs) constituting less than 1% of the total community from each sample were eliminated from the analysis to remove the variable low abundance components within the communities.
MTPS: We employed the MTPS process to characterize the microbiome from the fecal and biopsy samples. Specifically, we have generated a set of 96 emulsion PCR fusion primers that contain the 454 emulsion PCR linkers on the 27F and 355R primers and a different 8 base “barcode” between the A adapter and 27F primer. Thus, each fecal sample was amplified with unique bar-coded forward 16S rRNA primers and then up to 96 samples were pooled and subjected to emulsion PCR and pyrosequenced using a GS-FLX pyrosequencer (Roche). Data from each pooled sample were “deconvoluted” by sorting the sequences into bins based on the barcodes using custom PERL scripts. Thus, we were able to normalize each sample by the total number of reads from each barcode. We have noted that ligating tagged primers to PCR amplicons distorts the abundances of the communities and thus it is critical to incorporate the tags during the original amplification step.
Microbiome Community Analysis: We identified the taxa present in each sample using the Bayesian analysis tool in Version 10 of the Ribosomal Database Project (RDP10). […] We chose this cutoff because of our a priori assumption that genera present in <1% of the community vary between individuals and have minimal contribution to the functionality of that community and 2,000 reads per sample will only reliably identify community components that are greater than 1% in abundance (16). […]

[1] = tested on: cirrhotic patients with HE; test: Comparison within the HE group: cognitive battery (PHES, block design, ICT) (Example 1); type: in vivo, human; conditions: HE patients on therapy, mean ± SD
Method: All subjects underwent a mini-mental status exam and only those scoring above 25 were included in the full study (11). Participants then underwent a 24-hour dietary recall. Subsequently a recommended cognitive battery consisting of the following tests was administered to the cirrhotic patients; (a) Psychometric hepatic encephalopathy score (PHES), (b) block design test (BDT: subjects are required to replicate standardized designs with given blocks in a timed manner. The score is based on the designs correctly copied) and (c) Inhibitory control test. [This is a 15 minute computerized test. Subjects are instructed to respond to alternating presentations of X and Y on the screen (targets) while inhibiting response when X and Y are not alternating (lures)] (3, 41). The PHES consists of 5 tests: number connection test-A/B (NCT-A/B: subjects are asked to “join the dots” between numbers or numbers and alphabets in a timed fashion and the number of seconds required is the outcome), digit symbol (DST: subjects are required to copy corresponding figures from a given list within 2 minutes and the number correctly copied is the result), line drawing [LDTt (time) and LDTe (errors): subjects are required to trace a line between two parallel lines and balance between speed and accuracy. Time required and the number of times the subject's line strays beyond the marked lines (errors) are recorded] and serial dotting (SDT, subjects are asked to dot the center of a group of blank circles and the time required is the outcome)]. The PHES is a validated battery for cognitive dysfunction in cirrhosis and tests for psychomotor speed, visuo-motor coordination, attention and set-shifting(32). The BDT tests for visuo-motor coordination. The ICT is a validated computerized test of attention, psychomotor speed, response inhibition and working memory. A high score on BDT, DST and ICT targets and a low score on the rest of the tests indicates good cognitive performance. Cirrhotic patients also underwent serum collection for inflammatory cytokines testing for innate immunity [IL-1b, IL-6, TNF-α (tumor necrosis factor-alpha)], Th1 response ([IFN-γ (interferon-gamma) and IL-2], Th2 response (IL-4, IL-10, IL-13], Th17 response (IL-17 and IL-23), and endotoxin. These were analyzed in duplicate by multiplex bead-based sandwich ELISA and LAL assay for endotoxin using published techniques by AssayGate Inc, Ijamsville, Md. (4, 17, 45).
The cirrhosis group was divided into those with and without HE and were compared. Data from the significant variables between HE and non-HE groups were combined in a MANOVA model. Within HE patients, comparison was made between those on lactulose alone to those with lactulose and rifaximin. Microbiome abundance comparisons between groups were made at a family level using non-parametric tests. A comparison was performed between patients on and withdrawn off of lactulose therapy using the Wilcoxon matched-pair signed rank tests. All values are presented as mean±standard deviation unless mentioned otherwise.

OC[C@H]1O[C@@H](O[C@@H]2[C@@H](CO)OC(O)(CO)[C@H]2O)[C@H](O)[C@@H](O)[C@H]1O (mixture of isomers) [lactulose]
Lachnospiraceae_Roseburia (mucosal microbiome; p 0.005): 1.9 % abundance
Incertae Sedis XIV_Blautia (mucosal microbiome; p 0.008): 4.2 % abundance
Propionibacteriaceae_Propionibacterium (mucosal microbiome; p 0.03): 1.1 % abundance
Rikenellaceae_Alistipes (mucosal microbiome; p 0.03): 1.8 % abundance
Veillonellaceae_Other (mucosal microbiome; p 0.03): 1.1 % abundance
ICT targets ([1]; high = good cognition): 90.6 ± 8.64%
block design ([1]; high = good cognition): 24.9 ± 24.8 score
digit symbol ([1]; high = good cognition): 36.5 ± 14.0 score
ICT lures ([1]; high = poor cognition): 17.4 ± 10.8 number
Line drawing errors ([1]; high = poor cognition): 28.0 ± 18.6 score
Line drawing time ([1]; high = poor cognition): 106.9 ± 54.5 s
number connection-A ([1]; high = poor cognition): 55.2 ± 34.1 s
number connection-B ([1]; high = poor cognition): 189 ± 127 s
serial dotting ([1]; high = poor cognition): 88.7 ± 29.2 s
